The values below come from US10105382B2, “Therapy regimen and methods to sensitize cancer cells treated with epigenetic therapy to PARP inhibitors in ovarian cancer” (THE JOHNS HOPKINS UNIVERSITY, priority 2014, dated 2018).

Series [1] concerns A2780. As to the kind of experiment: Clonogenicity of ovarian cancer cells A2780. The format is cell-based. The note with it: 5AZA alone. On the procedure: (§1) There were 7 days of recovery between the DNMTi and PARPi treatment;
(§2) Multiple cancer cell lines derived from leukemia, breast, ovarian, and lung were treated with low dose DAC/5-AZA (10 nM and 5 nM) for 3 days, followed by removal of the drug for 4 days to 7 days, and subsequent plating of cells in methylcellulose to follow self-renewal capability in the presence or absence of the PARP inhibitor ABT888 (500 nM).

Series [2] deals with cancer cell lines derived from leukemia, breast, ovarian, and lung. The series can be described thus: Methylcellulose colony assay in multiple cancer cell lines. The format is cell-based. The protocol: as §2
In series [3] the test system is OVCAR3. As to the kind of experiment: Clonogenicity of ovarian cancer cells OVCAR3. The format is cell-based. The following applies: 5AZA alone. The protocol:
as §1, §2

The test system of series [4] is MDA MB231. The series can be described thus: Clonogenicity of breast cancer cells MDA MB231. The format is cell-based. The following applies: 5AZA alone. The protocol:
as §1, §2

The subject of series [5] is HCC1937. The series can be described thus: Clonogenicity of breast cancer cells HCC1937. The format is cell-based. The note with it: 5AZA alone. On the procedure: as §1, §2
For series [6], the system named is PARP. The note with it: treatment alone.
The subject of series [7] is MCF7. The series can be described thus: Clonogenicity of breast cancer cells MCF7. It is filed as cell-based. The note with it: 5AZA alone. On the procedure:
as §1, §2

For series [8], the system named is γH2AX foci. As to the kind of experiment: γH2AX foci immunofluorescence in MV411. It is filed as cell-based, Human. The protocol: Immunofluorescence: AML cells (0.2×10^6 cells) were cytospun onto glass slides for 5 min at 200 rpm in PBS 1× on a Shandon Cytospin 4. Cells were then fixed for 30 min in 4% paraformaldehyde, washed 3 times in DPBS (+CaCl2 and MgCl2, DPBS++), permeabilized for 10 min in permeabilization solution (50 mM NaCl, 3 mM MgCl2, 10 mM HEPES, 200 mM Sucrose and 0.5% Triton X-100 in PBS 1×), washed 3 times in DPBS (+CaCl2, +MgCl2) supplemented with BSA 1% (DPBS-BSA) and then blocked overnight in DPBS++ supplemented with 10% serum. After incubation with mouse monoclonal anti-γH2A.x (1:100, Upstate), rabbit polyclonal anti-RAD51 (1:100, Santa Cruz Biotechnologies, Dallas, Tex.), rabbit Poly-ADP-ribose (PAR, 1:200, Axxora, Farmingdale, N.Y.), or isotypes controls for an hour at 37° C. in DPBS-BSA, cells were washed and then incubated with Dylight 594-anti-mouse and Dylight 488-anti rabbit (1:200, KPL, Gaithersburg, Md.) for an hour at 37° C. prior to counterstaining with 4′,6 diamidino-2-phenylindole, dihydrochloride (DAPI, 0.3 μg/mL, Promega, Madison, Wis.) in mounting media (Vectashield, Vector Laboratories, Burlingame, Calif.). Slides were examined using a Nikon fluorescent microscope Eclipse 80i (100×/1.4 oil, Melville, N.Y.). Images of at least 50 cells/slide were captured using a CCD (charge-coupled device) camera and the imaging software NIS Elements (BR 3.00, Nikon).

Series [9] has as its system MOLM14. As to the kind of experiment: cells. The following applies: Homo sapiens, MOLM-14, 72 h.
Description: (§6) Four hours prior to evaluation, 20 μL of MTS labelling reagent ([3-(4, 5-dimethylthiazol-2-yl)-5-(3-carboxymethoxyphenyl)-2-(4-sulfophenyl)-2H-tetrazolium, MTS supplemented with phenazine methosulfate, PMS, Promega, Madison, Wis.) was added to each well. The results were quantified using a VersaMax Elisa Microplate Reader at a wavelength of 490 nm and SoftMax®Pro software (Molecular Devices, Sunnyvale, Calif.). Results (fold changes compared to CRTL) are representative of the mean±SEM of three independent experiments in triplicate.
(§7) Four hours prior to evaluation, 20 μL of MTS labelling reagent ([3-(4,5-dimethylthiazol-2-yl)-5-(3-carboxymethoxyphenyl)-2-(4-sulfophenyl)-2H-tetrazolium, MTS supplemented with phenazine methosulfate, PMS, Promega, Madison, Wis.) was added to each well. The results were quantified using a VersaMax Elisa Microplate Reader at a wavelength of 490 nm and SoftMax®Pro software (Molecular Devices, Sunnyvale, Calif.). Results (Fold changes compared to CRTL) are representative of the mean±SEM of three independent experiments in triplicate.
Series [10] deals with mononuclear cells (MNC) from AML patients. The series can be described thus: Colony forming assay in primary cells from AML patients. It is filed as cell-based, Human. The following applies: ABT888 500 nM alone; 3 of 6 patients (#15, #29, #16).
The subject of series [11] is MV411 (homozygote for FLT3-ITD). The series can be described thus: Colony forming (methylcellulose clonogenic) assay in MV411. It is filed as cell-based, Human. On the procedure: (§3) Decitabine (DAC, 21.9 mM in DMSO, Sigma-Aldrich) was further diluted in water just before treatment of the cells with 5 nM, 10 nM or 20 nM of DAC. […] DAC was added every 24 hours for 72 hours with daily medium change, then the drug was washed out and cells were allowed to recover for 4 days (unless indicated otherwise) before further use. At day 7, cells were counted with trypan blue, treated with PARPi's, set in culture in 100 mm plates at a density of 0.2×10^6 cells/mL or in methylcellulose for colony forming assay as described later. At days indicated on the figures, 5- to 10×10^6 viable cells (trypan blue exclusion) were recovered, fast frozen and stored at −80° C. for further use for protein extraction.
(§4) Colony forming assay: At Day 7 of the experiment, equal numbers of viable cells (KASUMI-1 cells, 10000 cells/dish; MV411, 5000 cells/dish; MOLM14, 1000 cells/dish; Patients #16, 2000 cells/dish, #9, #13 and #15, 5000 cells/dish, #29, 10000 cells/dish, #30, 20000 cells/dish and #34, 40000 cells/dish) were treated as described earlier and plated in triplicate in 33 mm dish on MethoCult H4435 Enriched (StemCell Technologies, Vancouver, British Columbia, Canada) for MNC, or Methylcellulose Stock Solution (R&D Systems, Minneapolis, Minn.) supplemented with culture media for cell lines according to the instructions of the manufacturer. Ten to nineteen days later, colonies were stained with 2-(4-iodophenyl)-3-(4-nitrophenyl)-5-phenlytetrazolium chloride (1 mg/mL) overnight at 37° C. and colonies containing more than 40 cells were quantified using a colony counter and Protocol3 software (Synbiosis, Frederick, Md.).
(§5) In order to study if the DAC dependent reprogramming (Tsai et al., 2012) could sensitize AML cells to PARPi's, KASUMI-1, MOLM14 and MV411 cells were first treated with increased doses of DAC (5 nM-20 nM) for three days with daily replacement of drugs and media as described previously (Tsai et al., 2012). […]

Series [12] has as its system MOLM14 (heterozygote for FLT3-ITD). The series can be described thus: Colony forming (methylcellulose clonogenic) assay in MOLM14. The format is cell-based, Human. The protocol: as §3, §4, §5
In series [13] the test system is MV411. The series can be described thus: cells. The following applies: Homo sapiens, MV4-11, 72 h.
Description: as §6, §7
Series [14] addresses T1, PARP1 (Homo sapiens, UniProt P09874).
T1 construct: chromatin extracts from cells X-irradiated (4Gy) to induce DSBs were examined; endogenous in cells; host or cells: MV411 and MOLM14 AML cells
The series can be described thus: PARP1 trapping in chromatin, Western blot of chromatin extracts of X-irradiated AML cells. The note with it: MV411, ABT888 5 μM alone, 4Gy X-ray, FIG. 15E. The format is cell-based. (In general: Immunoblotting shows a protein as a band on a membrane.)
Excerpt: Irradiation: For irradiation (IR) studies, cells were exposed to 4Gy X-Ray radiation using a Pantak HF320 X-Ray machine (250 kV peak, 13 mA; half-value layer, 1.65 mm copper) at a dose rate of 2.4 Gy/min. After IR, cells were allowed to recover from DNA damage for 4 hrs before extraction of protein.
Subcellular fractionation: To isolate the chromatin bound fraction (CH) and soluble nuclear fraction (NUC), a Subcellular Protein Fractionation kit (Thermo Fisher Scientific, Waltham, Mass.) was used by following the instructions of the manufacturer.
Immunoblotting: Immunoblotting was performed following standard procedures using 5 μg of NUC and CH fractions. Proteins were loaded onto a 4%-20% SDS-PAGE gel (Bio-Rad laboratories, Hercules, Calif.), transferred on PVDF membrane (GE Healthcare Life Sciences, Pittsburgh, Pa.) and blots were washed in Tris Buffered Saline-0.1% Tween 20 (TBST) three times, blocked in TBST-5% bovine serum albumin (TBST-BSA) for an hour at least and first antibodies in TBST-BSA were applied overnight at 4° C. on shaker. […]

Series [15] concerns KASUMI-1 (AML1-ETO positive). As to the kind of experiment: Colony forming (methylcellulose clonogenic) assay in KASUMI-1. It is filed as cell-based, Human. The note with it: ABT888 500 nM, single agent. The protocol: as §3, with “extraction. […]” for “extraction.”
In order to study if the DAC dependent reprogramming (Tsai et al., 2012) could sensitize AML cells to PARPi's, KASUMI-1, MOLM14 and MV411 cells were first treated with increased doses of DAC (5 nM-20 nM) for three days with daily replacement of drugs and media as described previously (Tsai et al., 2012). […] Ten days later, clonogenic efficiency was measured by counting colonies with more than 40 cells and results were expressed as fold changes compared to controls (CRTL) (FIG. 2).

For series [16], the system named is normal bone marrow (NBM). The series can be described thus: Colony survival of normal bone marrow. The note with it: drug concentrations used; BMN 1 nM in FIG. 18. It is filed as cell-based. The protocol: Colony forming assay: At Day 7 of experiment, equal numbers of viable cells (KASUMI-1 cells 10000 cells/dish; MV411 3000 cells/dish; MOLM14 1000 cells/dish; Patients #16, 2000 cells/dish, #9, #13 and #15, 5000 cells/dish, #29, 10000 cells/dish, #30, 20000 cells/dish and #34, 40000 cells/dish) were treated as described earlier and plated in triplicate in 33 mm dish on MethoCult H4435 Enriched (StemCell Technologies, Vancouver, British Columbia, Canada) for MNC, or Methylcellulose Stock Solution (R&D Systems, Minneapolis, Minn.) supplemented with culture media for cell lines according to the instructions of the manufacturer. Ten to nineteen days later, colonies were stained with 2-(4-iodophenyl)-3-(4-nitrophenyl)-5-phenlytetrazolium chloride (1 mg/mL) overnight at 37° C. and colonies containing more than 40 cells were quantified using colony counter and Protocol3 software (Synbiosis, Frederick, Md.).

The mark [17] stands for this setting: BMN673 between 10 nM and 100 nM.

A value given as a limit tells only on which side of the number the result lay.

T1 sequence (P09874 whole entry): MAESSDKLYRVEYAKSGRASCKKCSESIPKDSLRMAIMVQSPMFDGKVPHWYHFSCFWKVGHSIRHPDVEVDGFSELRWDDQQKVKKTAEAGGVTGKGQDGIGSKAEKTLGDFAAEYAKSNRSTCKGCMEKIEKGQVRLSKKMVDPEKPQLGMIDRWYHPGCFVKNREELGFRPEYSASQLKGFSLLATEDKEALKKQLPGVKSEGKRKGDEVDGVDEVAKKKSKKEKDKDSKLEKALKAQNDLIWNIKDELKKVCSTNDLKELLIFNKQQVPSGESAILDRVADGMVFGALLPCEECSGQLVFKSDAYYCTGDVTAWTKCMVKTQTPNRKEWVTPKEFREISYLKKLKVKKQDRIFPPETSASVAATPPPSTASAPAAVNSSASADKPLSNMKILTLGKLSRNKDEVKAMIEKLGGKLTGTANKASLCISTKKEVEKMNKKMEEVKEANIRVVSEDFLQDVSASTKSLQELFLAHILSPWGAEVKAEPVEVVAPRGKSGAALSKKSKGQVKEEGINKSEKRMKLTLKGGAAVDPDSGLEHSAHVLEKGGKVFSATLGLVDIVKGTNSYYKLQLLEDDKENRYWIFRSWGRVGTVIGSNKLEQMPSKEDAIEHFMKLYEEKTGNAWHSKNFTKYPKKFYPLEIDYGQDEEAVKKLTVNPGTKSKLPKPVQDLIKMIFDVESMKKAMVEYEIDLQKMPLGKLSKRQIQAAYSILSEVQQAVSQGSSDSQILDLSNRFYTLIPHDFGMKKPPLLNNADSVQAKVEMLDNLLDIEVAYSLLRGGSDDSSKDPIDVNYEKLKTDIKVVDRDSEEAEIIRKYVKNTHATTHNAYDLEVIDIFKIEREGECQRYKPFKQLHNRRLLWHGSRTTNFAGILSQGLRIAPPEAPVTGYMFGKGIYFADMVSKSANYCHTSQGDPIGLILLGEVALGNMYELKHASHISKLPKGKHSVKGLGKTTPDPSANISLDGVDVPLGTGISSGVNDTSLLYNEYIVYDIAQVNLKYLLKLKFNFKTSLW

`Nc1ncn([C@@H]2O[C@H](CO)[C@@H](O)[C@H]2O)c(=O)n1` [5AZA, 5-azacitidine]: the clonogenicity result in [1], in [3], in series [4], in series [5] and in [7] was “decreased” in each case. In addition, the colony numbers result in [2] (DAC/5-AZA (10 nM and 5 nM) for 3 days alone) is recorded as “significant decrease in colony numbers”. Moreover, the PARP activity entry in series [6] is listed as “decreases PARP activity”.

By IC50 is commonly meant the midpoint of a concentration-inhibition curve. Low values mean greater potency, high ones weaker potency. With `C[C@]1(c2nc3c(C(N)=O)cccc3[nH]2)CCCN1` [ABT888, Veliparib], the colony numbers result in series [2] (ABT888 500 nM alone) is listed as “has an effect in some cases”. In addition, in series [8] (MV411, ABT888 5 μM alone), the γH2AX foci entry is reported as “an increase in foci”. The IC50 in [9] and in [13] was more than 25 µM throughout. Besides, the “responders: patients with decreased colony number” value in [10] turned out to be 50%. Besides, the “colony number vs CRTL” value in [11] (ABT888 500 nM, single agent) is listed as “significant reduction of colony numbers”; in series [12] (ABT888 500 nM, single agent) it was “significant reduction of colony numbers”; in [15] it was “not significantly affected”. Besides, the “PARP trapping into chromatin” value in [14] was “traps PARP into chromatin”. Moreover, the PARP activity entry in [6] is given as “decreases PARP activity”.

For the compound `Cn1ncnc1[C@H]1c2n[nH]c(=O)c3cc(F)cc(c23)N[C@@H]1c1ccc(F)cc1` [BMN673], the γH2AX foci entry in series [8] (MV411, BMN673 10 nM alone) is reported as “an increase in foci”. In addition, the IC50 in series [9] stood at 4.46 µM; in series [13], 6.45 µM. The entries for the “sensitivity in clonogenic assay” value in series [11] (BMN673 1 nM) and in series [12] (BMN673 1 nM) were “barely sensitive” and “cytotoxity occurring”, respectively. Moreover, the colony formation result in series [11] (setting [17]) and in [12] (setting [17]) was “profoundly inhibited colony formation” throughout. The “colony survival of normal bone marrow” value in series [16] is “not affected”.
